One assay deals with T1, GSK3-β (Homo sapiens, UniProt P49841).
T1 construct: purchased Upstate Discovery
Briefly: Inhibitory activity against glycogen synthase kinase-3 (Protocol A or B). The format is biochemical. Particulars: either Protocol A or Protocol B; read-out: IC50 in the GSK3-B assays. Here is the method: The activities of the compounds of the invention as inhibitors of GSK-3 were determined using either Protocol A or Protocol B below.
The reaction is allowed to proceed for 3 hours before being stopped with an excess of ortho-phosphoric acid (5 μl at 2%). The filtration procedure is as for Activated CDK2/CyclinA assay above.
GSK3β (human) is diluted to a 10× working stock in 50 mM Tris pH 7.5, 0.1 mM EGTA, 0.1 mM sodium vanadate, 0.1% β-mercaptoethanol, 1 mg/ml BSA.
(specific activity approx 500 cpm/pmol, concentration as required).

For assay [1], the system named is human colon carcinoma cell line HCT 116. Briefly: Anti-proliferative activity, Alamar Blue assay. The format is cell-based. As to conditions: 72 hours compound incubation, read-out: IC50, inhibition of cell growth, HCT 116. The procedure: The anti-proliferative activities of the combinations of the invention, as well as the individual components of the combinations, are determined by measuring the ability of the compounds to inhibition of cell growth in a number of cell lines. Inhibition of cell growth is measured using the Alamar Blue assay (Nociari, M. M, Shalev, A., Benias, P., Russo, C. Journal of Immunological Methods 1998, 213, 157-167). The method is based on the ability of viable cells to reduce resazurin to its fluorescent product resorufin. For each proliferation assay cells are plated onto 96 well plates and allowed to recover for 16 hours prior to the addition of inhibitor compounds for a further 72 hours. At the end of the incubation period 10% (v/v) Alamar Blue is added and incubated for a further 6 hours prior to determination of fluorescent product at […]. In the case of the non-proliferating cell assay cells are maintained at confluence for 96 hour prior to the addition of inhibitor compounds for a further 72 hours. The number of viable cells is determined by Alamar Blue assay as before. All cell lines are obtained from ECACC (European Collection of cell Cultures).

The target in another assay is Activated CDK2/CyclinA (Homo sapiens, UniProt P24941). As to the kind of experiment: Activated CDK2/CyclinA kinase inhibitory activity assay (IC50), Example 250A. The format is biochemical. The procedure:
Compounds of the invention were tested for kinase inhibitory activity using the following protocol.
The reaction is allowed to proceed for 2 to 4 hours before being stopped with an excess of ortho-phosphoric acid (5 μl at 2%).
γ^33P-ATP which remains unincorporated into the histone H1 is separated from phosphorylated histone H1 on a Millipore MAPH filter plate. The wells of the MAPH plate are wetted with 0.5% orthophosphoric acid, and then the results of the reaction are filtered with a Millipore vacuum filtration unit through the wells. Following filtration, the residue is washed twice with 200 μl of 0.5% orthophosphoric acid. Once the filters have dried, 20 μl of Microscint 20 scintillant is added, and then counted on a Packard Topcount for 30 seconds.

T1 sequence (P49841 whole entry): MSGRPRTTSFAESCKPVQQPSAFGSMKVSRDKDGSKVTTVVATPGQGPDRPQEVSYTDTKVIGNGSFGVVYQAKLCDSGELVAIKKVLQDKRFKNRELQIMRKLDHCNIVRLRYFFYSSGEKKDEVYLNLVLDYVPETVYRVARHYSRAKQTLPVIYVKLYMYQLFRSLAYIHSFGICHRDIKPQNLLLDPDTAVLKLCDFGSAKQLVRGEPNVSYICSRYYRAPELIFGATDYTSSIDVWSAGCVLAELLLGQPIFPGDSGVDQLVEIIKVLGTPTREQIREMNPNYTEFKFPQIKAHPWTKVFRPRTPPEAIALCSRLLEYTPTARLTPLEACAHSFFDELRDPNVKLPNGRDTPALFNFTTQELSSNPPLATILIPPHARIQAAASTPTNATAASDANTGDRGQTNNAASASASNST

By IC50 is commonly meant the concentration at which inhibition is half-maximal. Consider `CC(=O)Nc1c[nH]nc1C(=O)Nc1ccc(F)cc1` [Example 2, 4-Acetylamino-1H-pyrazole-3-carboxylic acid (4-fluoro-phenyl)-amide], for which the IC50 was below 10 µM on GSK3-β and below 100 µM in assay [1]. The like results for `O=C(Nc1c[nH]nc1C(=O)Nc1ccc(F)cc1)c1ccccc1` [Example 26, 4-Benzoylamino-1H-pyrazole-3-carboxylic acid (4-fluoro-phenyl)-amide] were, in that order, below 10 µM and below 20 µM. For `Cc1sccc1C(=O)Nc1c[nH]nc1C(=O)Nc1ccc(F)cc1` [Example 48, 4-[(2-Methyl-thiophene-3-carbonyl)-amino]-1H-pyrazole-3-carboxylic acid (4-fluoro-phenyl)-amide] the same measures were below 10 µM and below 20 µM.

Take `CN1CCC(NC(=O)c2n[nH]cc2NC(=O)c2c(F)cccc2F)CC1` [Example 53, 4-(2,6-Difluoro-benzoylamino)-1H-pyrazole-3-carboxylic acid (1-methyl-piperidin-4-yl)-amide]: the figures for the IC50 (at GSK3-β; in assay [1]) were below 10 µM and below 20 µM, respectively. For `O=C(NC1CCCCC1)c1n[nH]cc1NC(=O)c1c(F)cccc1F` [Example 65] the same measures were below 10 µM and below 20 µM.

For `O=C(NC1CCNCC1)c1n[nH]cc1NC(=O)c1c(F)cccc1F` [Example 76], the values for the IC50 (on GSK3-β; in assay [1]) were below 10 µM and below 20 µM, respectively. The like results for `CC(C)(C)C1CCC(NC(=O)c2c[nH]nc2NC(=O)c2c(F)cccc2F)CC1` (centres unmarked) [Example 77] were, in that order, below 10 µM and below 20 µM. As to `O=C(NCCN1CCOCC1)c1n[nH]cc1NC(=O)c1c(F)cccc1F` [Example 84], the IC50 on GSK3-β was below 10 µM. `O=C(NC1CCN(Cc2ccccc2)CC1)c1n[nH]cc1NC(=O)c1c(F)cccc1F` [Example 86]: the results for the IC50 (on GSK3-β; in assay [1]) were below 10 µM and below 20 µM, respectively. Consider `CC(C)(C)C1CCC(NC(=O)c2n[nH]cc2NC(=O)c2ccc(F)cc2)CC1` (centres unmarked) [Example 122], for which, at GSK3-β, the IC50 was below 10 µM. On to `CC(C)(C)C1CCC(NC(=O)c2n[nH]cc2NC(=O)c2ccc(Cl)cc2)CC1` (centres unmarked) [Example 126], for which the IC50 on GSK3-β was below 10 µM. Same read-out and setting: for `CC(C)(C)C1CCC(NC(=O)c2n[nH]cc2NC(=O)c2ccccc2)CC1` (centres unmarked) [Example 127] the value was below 10 µM; for `CC(C)(C)C1CCC(NC(=O)c2n[nH]cc2NC(=O)c2ccc(OC(F)F)cc2)CC1` (centres unmarked) [Example 128], below 10 µM; for `CC(C)(C)C1CCC(NC(=O)c2n[nH]cc2NC(=O)c2cc(F)cc(F)c2)CC1` (centres unmarked) [Example 129], below 10 µM. In the case of `Cc1oc(CN2CCOCC2)cc1C(=O)Nc1c[nH]nc1C(=O)NC1CCC(C(C)(C)C)CC1` (centres unmarked) [Example 138], the IC50 at GSK3-β was below 10 µM; in assay [1], below 20 µM. The like results for `O=C(Nc1c[nH]nc1C(=O)NC1CCNCC1)c1ccccc1` [Example 140] were, in that order, below 10 µM and below 20 µM. For `O=C(Nc1c[nH]nc1C(=O)NC1CCNCC1)c1ccc(F)cc1` [Example 141] the same measures were below 10 µM and below 20 µM. Take `O=C(Nc1c[nH]nc1C(=O)NC1CCNCC1)c1cc(F)cc(F)c1` [Example 144]: the IC50 was below 20 µM against Activated CDK2/CyclinA and below 10 µM at GSK3-β. The like results for `O=C(Nc1c[nH]nc1C(=O)NC1CCNCC1)c1ccc(OC(F)F)cc1` [Example 145] were, in that order, below 20 µM and below 10 µM. In the case of `Cc1onc(-c2ccccc2)c1C(=O)Nc1c[nH]nc1C(=O)NC1CCNCC1` [Example 146], the IC50 at GSK3-β was below 10 µM. For the compound `O=C(Nc1c[nH]nc1C(=O)NC1CCNCC1)c1ccc(N2CCOCC2)cc1Cl` [Example 151], the values for the IC50 (at GSK3-β; in assay [1]) were below 10 µM and below 20 µM, respectively. Turning to `O=C(Nc1c[nH]nc1C(=O)N[C@H]1CC[C@H](O)CC1)Nc1c(F)cccc1F` [Example 160], the IC50 at Activated CDK2/CyclinA is below 20 µM; in assay [1], below 100 µM. The like results for `C[N+]1([O-])CCC(NC(=O)c2n[nH]cc2NC(=O)c2c(F)cccc2F)CC1` (centres unmarked) [Example 162] were, in that order, below 20 µM and below 20 µM. For `NC[C@H]1CC[C@H](NC(=O)c2n[nH]cc2NC(=O)c2c(F)cccc2F)CC1` [Example 163] the same measures were below 20 µM and below 20 µM. For `CS(=O)(=O)NC[C@H]1CC[C@H](NC(=O)c2n[nH]cc2NC(=O)c2c(F)cccc2F)CC1` [Example 164] the same measures were below 20 µM and below 20 µM. Take `O=C(N[C@H]1CC[C@H](N2CCOCC2)CC1)c1n[nH]cc1NC(=O)c1c(F)cccc1F` [Example 167]: the IC50 (on Activated CDK2/CyclinA; in assay [1]) was below 20 µM throughout. In the case of `O=C(Nc1c[nH]nc1C(=O)NCC1CC1)c1cccc2c1OCCO2` [Example 178], the IC50 (at Activated CDK2/CyclinA; in assay [1]) was below 20 µM throughout. Turning to `CC(C)(C)N1CCC(NC(=O)c2n[nH]cc2NC(=O)c2c(F)cccc2F)CC1` [Example 179], the IC50 (against Activated CDK2/CyclinA; in assay [1]) was below 20 µM in each case.

In the case of `O=C(Nc1c[nH]nc1C(=O)NCC1CC1)c1ccc(N2CCOCC2)cc1Cl` [Example 182], the values for the IC50 (on Activated CDK2/CyclinA; in assay [1]) were below 20 µM and below 100 µM, respectively. The like results for `CN1CCC(NC(=O)c2n[nH]cc2NC(=O)c2c(F)cccc2Cl)CC1` [Example 186] were, in that order, below 20 µM and below 20 µM. The like results for `CN1CCC(NC(=O)c2n[nH]cc2NC(=O)c2c(Cl)cccc2Cl)CC1` [Example 187] were, in that order, below 20 µM and below 20 µM.

On to `Cc1ccc(C(=O)Nc2c[nH]nc2C(=O)NC2CCN(C)CC2)cc1` [Example 189], for which the IC50 (against Activated CDK2/CyclinA; in assay [1]) was below 20 µM each time. As for `COc1ccccc1C(=O)Nc1c[nH]nc1C(=O)NC1CCNCC1` [Example 190], the IC50 (on Activated CDK2/CyclinA; in assay [1]) was below 20 µM in each case. Consider `O=C(NC1CCNCC1)c1n[nH]cc1NC(=O)c1c(Cl)cncc1Cl` [Example 194], for which the IC50 (at Activated CDK2/CyclinA; in assay [1]) was below 20 µM in each case. Consider `O=C(Nc1c[nH]nc1C(=O)NC1CCNCC1)c1ccccc1OC(F)(F)F` [Example 196], for which the IC50 (against Activated CDK2/CyclinA; in assay [1]) was below 20 µM in each case. In the case of `CCOc1ccccc1C(=O)Nc1c[nH]nc1C(=O)NC1CCNCC1` [Example 198], the IC50 (against Activated CDK2/CyclinA; in assay [1]) was below 20 µM in each case. With `O=C(Nc1c[nH]nc1C(=O)NC1CCNCC1)c1ccccc1N1CCOCC1` [Example 199], the IC50 (on Activated CDK2/CyclinA; in assay [1]) was below 20 µM throughout. On to `O=C(Nc1c[nH]nc1C(=O)NC1CCNCC1)c1ccccc1OCc1ccccc1` [Example 200], for which the IC50 (against Activated CDK2/CyclinA; in assay [1]) was below 20 µM each time. For the compound `O=C(Nc1c[nH]nc1C(=O)NC1CCNCC1)c1ccccc1Br` [Example 201], the half-maximal inhibitory concentration (IC50) (at Activated CDK2/CyclinA; in assay [1]) was below 20 µM throughout. For `COc1cccc(F)c1C(=O)Nc1c[nH]nc1C(=O)NC1CCN(C)CC1` [Example 202], the concentration for half-maximal inhibition (IC50) (against Activated CDK2/CyclinA; in assay [1]) was below 20 µM in each case. As for `CN1CCC(NC(=O)c2n[nH]cc2NC(=O)c2ccccc2OC(C)(C)C)CC1` [Example 203], the IC50 (on Activated CDK2/CyclinA; in assay [1]) was below 20 µM in each case. As to `COc1ccc(F)cc1C(=O)Nc1c[nH]nc1C(=O)NC1CCN(C)CC1` [Example 204], the IC50 (against Activated CDK2/CyclinA; in assay [1]) was below 20 µM each time.

Turning to `O=C(N[C@H]1CCCNC1)c1n[nH]cc1NC(=O)c1c(Cl)cccc1Cl` [Example 208], the IC50 (at Activated CDK2/CyclinA; in assay [1]) was below 20 µM in each case. Regarding `COCCN1CCC(NC(=O)c2n[nH]cc2NC(=O)c2c(Cl)cccc2Cl)CC1` [Example 209], the IC50 (against Activated CDK2/CyclinA; in assay [1]) was below 20 µM throughout. Regarding `CN1CCC(NC(=O)c2n[nH]cc2NC(=O)c2ccccc2Cl)CC1` [Example 211], the 50% inhibitory concentration (IC50) (against Activated CDK2/CyclinA; in assay [1]) was below 20 µM in each case. Regarding `CN1CCC(NC(=O)c2n[nH]cc2NC(=O)c2cc(Cl)ccc2Cl)CC1` [Example 212], the IC50 (against Activated CDK2/CyclinA; in assay [1]) was below 20 µM each time.

In the case of `CN1CCC(NC(=O)c2n[nH]cc2NC(=O)c2cccc(Cl)c2Cl)CC1` [Example 213], the IC50 (against Activated CDK2/CyclinA; in assay [1]) was below 20 µM in each case.

Consider `CN1CCN(c2cc(F)cc(C(=O)Nc3c[nH]nc3C(=O)NC3CCCCC3)c2)CC1` [Example 215], for which the IC50 (at Activated CDK2/CyclinA; in assay [1]) was below 20 µM each time.
